Patent US7579474B2, “Substituted piperidines as modulators of dopamine neurotransmission” (NSAB, Filial AF Neurosearch AB, Sverige, priority 2004, dated 2009)
“And” between values parts separate entries of the source, which are not always exact repeats. Equal entries are not always repeated. Where two headings read alike, the source gives them in different places.

What was measured:
[1] = type: in vitro ADME; conditions: rat, microsomes, 0.25 h, pH 7.4
Procedure: Rat liver microsomes were isolated as described by Förlin (1980) Effects of Clophen A50, 3-methylcholantrene, pregnenolone-16aq-carbonitrile and Phenobarbital on the hepatic microsomal cytochrome P-450-dependent monooxygenaser system in rainbow trout, salmo garirdneri, of different age and sex. Tox Appl Pharm. 54(3) 420-430, with minor modifications e.g. 3 mL/g liver of a 0.1 M Na/K*PO4 buffer with 0.15 M KCl, pH 7.4, (buffer 1) was added before homogenisation, the homogenate was centrifuged for 20 minutes instead of 15, the supernatant was ultracentrifuged at 100.000 g instead of 105.000 g and the pellet from the ultracentrifugation was resuspended in 1 mL/g liver of 20% v/v 87% glycerol in buffer 1.
1 μL of, 0.2 or 1 mM test substance diluted in water and 10 μL 20 mg/mL rat liver micro-some were mixed with 149 μL 37° C. buffer 1 and the reaction was started by addition of 40 μL 4.1 mg/mL NADPH. After 0 or 15 minutes incubation at 37° C. in a heating block (LAB-LINE, MULTI-BLOK Heater or lab4you, TS-100 Thermo shaker at 700 rpm) the reaction was stopped by addition of 100 μL pure acetonitrile. The protein precipitation was then removed by rejecting the pellet after centrifugation at 10.000 g for 10 minutes (Heraeus, Biofuge fresco) in 4° C. The test compound was analysed using HPLC-MS (Hewlett-Packard 1100MSD Series) with a Zorbax SB-C18 column (2.1*150 mm, 5 μm) using 0.03% formic acid and acetonitrile as mobile phase (gradient) or a Zorbax Eclipse XDB-C18 (3*75 mm, 3.5 μm) using 0.03% acetic acid and acetonitrile as mobile phase (gradient). The 15 min turnover was calculated as the fraction of test compound eliminated after 15 minutes, expressed in percent of 0 min levels, ie 100*[conc test compound at 0 min−concentration at 15 min]/conc at 0 min.
Preparation of liver microsomes was performed as described in Förlin (1980). Protocols for incubation with liver microsomes are referred in Crespi et Stresser (2000), and Renwick et al (2001).

[2] = Oral bioavailability in rat; type: in vivo
Procedure: Experiments are performed 24 hours after implantation of arterial and venous catheters. Test compound is administered orally at 12.5 μmol/kg or intravenously at 5 μmol/kg using the venous catheters, n=3 per group. Arterial blood samples are then taken during […] at 0, 3, 9, 27, 60, 120, 180, 240, 300 and, 360 minutes after administration of the test compound. The oral bioavailability was calculated as the ratio of the AUC (Area under curve) obtained after oral administration over the AUC obtained after intravenous administration for each rat. The parameter AUC was calculated according to the following: AUC: the area under the plasma concentration versus time curve from time zero to the last concentration measured (Clast), calculated by the log/linear trapezoidal method.
The levels of test compound are measured by means of liquid chromatography-mass spectrometry (LC-MS). (Hewlett-Packard 1100MSD Series). The module include a quaternary pump system, vacuum degasser, thermostatted autosampler, thermostatted column compartment, diode array detector and API-ES spray chamber. […]
Extractions procedure: Plasma samples (0.25-0.5 ml) were diluted with water to 1 ml, and 60 pmol (100 μl) internal standard (−)-OSU6241 was added. […] The selective ion (MH^+) was monitored for each Example, and MH^+ 296 for (−)-OSU6241 ((3-[3-(ethylsulfonyl)phenyl]-1-propylpiperidine). […]

[3] = system: amphetamine-induced hyper-locomotion; test: Reduction of amphetamine-induced hyper-locomotion; type: in vivo, rat; conditions: rats pretreated with d-amphetamine 1.5 mg/kg i.p., test compound s.c., last 45 minutes of one hour, range covers 95% of fits
From the text: In this model, dopaminergic neurotransmission is increased by systemic administration of d-amphetamine at a dose that is sufficiently high to produce a large increase in locomotor activity. The ability of a compound to antagonize this hyperactivity reflects anti-dopaminergic properties, which are part of the dopaminergic stabiliser profile.
Photobeam sensors were spaced 2.5 cm apart.
For most compounds, the evaluation is based on 16 amphetamine pre-treated animals over the dose range 0, 11, 33 and 100 μmol/kg s.c. in one single experiment, with complementary doses in separate experiments. Calculations are based on distance during the last 45 minutes of one hour of measurement. The distances are normalised to amphetamine-control and fitted by least square minimization to the function “End-(End-Control)/(1+(dose/ED50)^Slope)”. […] To estimate confidence levels for the parameters, the fit is repeated 100 times with a random evenly distributed squared weight (0 to 1) for every measurement value. Presented ED50-ranges cover 95% of these values.

[4] = system: Locomotor activity in MK-801 pre-treated rats; test: Locomotor activity in MK-801 pre-treated rats; conditions: for Locomotor activity, MK + example 100 μmol/kg: MK-801 0.7 mg/kg i.p. 90 minutes before test compound, recorded 30-60 minutes after administration

**Q.** Which results are given for `CCCN1CCC(O)(c2ccc(F)c(C(F)(F)F)c2)CC1` [Example 8, 4-[4-FLUORO-3-(TRIFLUOROMETHYL)PHENYL]-1-PROPYLPIPERIDIN-4-OL]?
**A.** turnover at 15 minutes [1]: 29%; bioavailability ([2]; plasma, oral 12.5 μmol/kg vs i.v. 5 μmol/kg, AUC ratio, read-out: oral bioavailability): ~29%

**Q.** With `COc1cccc(C2(O)CCN(C)CC2)c1OC` as the compound, how does the “ED50 reduction of amphetamine-induced hyper-locomotion” value [3] read?
**A.** inactive

**Q.** For `CCCN1CCC(O)(c2cccc(S(C)(=O)=O)c2)CC1` [drawing 51], which “ED50 reduction of amphetamine-induced hyper-locomotion” value [3] is on record?
**A.** inactive

**Q.** With `CCCN1CCC(O)(c2cccc(C(F)(F)F)c2F)CC1` [Example 1, 4-[2-FLUORO-3-(TRIFLUOROMETHYL)PHENYL]-1-PROPYLPIPERIDIN-4-OL] as the compound, how does the “turnover at 15 minutes” value [1] read?
**A.** 27%

**Q.** With `CCN1CCC(O)(c2cccc(C(F)(F)F)c2F)CC1` [drawing 56] as the compound, how does the “Locomotor activity, MK + example 100 μmol/kg” value [4] read?
**A.** 18307 ± 7375 (P =0.3) counts/30 min ± SEM

**Q.** With `C[C@]12N[C@H](Cc3ccccc31)c1ccccc12` [MK-801, reference compound] as the compound, how does the “Locomotor activity, MK-801 0.7 mg/kg i.p.” value ([4]; MK-801 alone, 0.7 mg/kg i.p., recorded 30-60 minutes, one group per experiment, 0.7 mg/kg) read?
**A.** 40367 ± 9127 counts/30 min ± SEM and 32169 ± 10605 counts/30 min ± SEM and 30819 ± 12771 counts/30 min ± SEM and 42061 ± 2219 counts/30 min ± SEM and 58370 ± 3007 counts/30 min ± SEM

**Q.** With `COCCN1CCC(O)(c2ccc(Cl)c(C(F)(F)F)c2)CC1` [drawing 59] as the compound, how does the “Locomotor activity, MK + example 100 μmol/kg” value [4] read?
**A.** 7407 ± 3282 (P =0.00003) counts/30 min ± SEM

**Q.** With `CCCN1CCC(c2ccc(F)c(C(F)(F)F)c2)CC1` as the compound, how does the ED50 ([3]; Rattus norvegicus) read?
**A.** 30 µmol/kg

**Q.** Which “turnover at 15 minutes” value [1] does the source give for `CCN1CCC(O)(c2cccc(C(F)(F)F)c2F)CC1` [Example 3, 4-[2-FLUORO-3-(TRIFLUOROMETHYL)PHENYL]-1-ETHYLPIPERIDIN-4-OL] here?
**A.** 8%

**Q.** What about the bioavailability ([2]; in vivo) of the same compound?
**A.** ~80%
